Experiment [1] concerns Av5E1aTK01i. Put plainly: GCV inhibition of Av5E1aTk01i replication in vivo, immunohistochemistry of subcutaneous A549 tumors. Further details: species or system nude mice. Conditions: A549 tumors injected with 1×10^9 pfu Av5E1aTK01i; IP GCV 75 mg/kg once a day for 5 days. The method, then: FIG. 7. GCV Inhibition of Av5E1aTk01i Replication In Vivo. Subcutaneous tumors were formed by injecting 1×10^7 A549 cells into the subcutaneous space of the right flank of nude mice. After tumors formed 1×10^9 pfu of Add1327Tk01i was injected into several animals containing tumors. After 5 days, half of the animals received 5 days of IP GCV treatment at 75 mg/kg once a day. At the end of this time frame all animals were sacrificed. Immunohistochemistry was performed on all samples for HSV-TK expression and hexon expression, the latter which is only expressed when the vector is replicating.
Subcutaneous tumors were formed by injecting 1×10^7 A549 cells into the subcutaneous space of the right flank of nude mice. After tumors formed, 1×10^9 pfu of Av5E1aTK01i was injected into several animals containing tumors. After 5 days half the animals received 5 days of IP GCV treatment at 75 mg/kg once a day. At the end of this time frame all animals were sacrificed. Immunohistochemistry was performed on all samples for HSV-TK expression and hexon expression, the latter which is only expressed when the vector is replicating.

For experiment [2], the system named is Av5E1aTK01i. The experiment can be described thus: GCV inhibition of vector replication in vitro, viral titer by TCID50 on 293 cells. It is filed as cell-based. The following applies: A549 cells transduced with Av5E1aTK01i; 10 μM GCV for 5 days; repeated three times. The method, then: (§1) FIG. 6. GCV Inhibition of Av5E1aTk01i Replication In Vitro. A549 cells were transduced with either Add1327 or Add1327Tk01i. Cells were then treated with 10 uM GCV for 5 days. Following the 5 day incubation, cells were harvested, washed in HBSS, and then freeze/thawed to prepare a crude viral lysate. Titers were then performed by standard TCID50 assays on 293 cells to determine viral titer. The experiment was repeated three times.
(§2) HSV-TK was placed into the E3 region of Add1327 to form Av5E1aTK01i. A549 cells were transduced with either Add1327 or Av5E1aTK01i. Cells were then treated with 10 μM GCV for 5 days. Following the 5 day incubation cells were harvested, washed in HBSS, and then freeze/thawed to prepare a crude viral lysate. Titers were then performed by standard TCID^50 assays on 293 cells to determine viral titer. The experiment was repeated three times.

Another experiment relates to Add1327. The experiment is described as above. It is filed as cell-based. Conditions: A549 cells transduced with Add1327; 10 μM GCV for 5 days; repeated three times. The method, then: as §1, §2

Here are results for one compound from patent US6638762B1, “Tissue-vectors specific replication and gene expression” (priority 1994, dated 2003).

Each structure is given as a SMILES string.

In the case of `Nc1nc(O)c2ncn(COC(CO)CO)c2n1` [GCV, ganciclovir], the “hexon expression (only expressed when the vector is replicating), immunohistochemistry” value in the experiment with Av5E1aTK01i [1] is recorded as “severely diminished”. In addition, the “drop in titer of a vector carrying the HSV-TK gene” value with Av5E1aTK01i [2] is listed as “greater than 4 order of magnitude”. In addition, the “effect on viral titer of an adenovirus not carrying the HSV-TK gene” value with Add1327 is “no effect”.
